Assay results from PubChem BioAssay AID179 (DTP/NCI, 2004).
pEC50, pIC50: −log10 of the molar value. Calls of active or inactive are those of the source.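 How the source made its calls: active means compounds giving half or more protection of infected cells from virus-caused growth loss, again on retest; inactive means the rest.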

Tested on: CEM cells HIV-1 protection, formazan growth assay
Experiment: NCI AIDS Antiviral Assay
Conditions: for pIC50: measured here: growth of uninfected CEM cells
In short: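 Category rules: moderately active means at least 50% protection on retest, and confirmed active means 100% protection reproducibly. The underlying data came from a formazan growth assay in HIV-1-infected CEM cells.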

## COc1ccc(/C=C2\CCCC(C(NO)c3ccc(OC)cc3)C2=NO)cc1 (centres undefined)
  pEC50: < 4.72
  pIC50: < 4.72

## O=C1CC(CC(O)C(O)CO)CC(=O)N1 (centres undefined)
  pEC50: < 3.70
  pIC50: < 3.70

## OC(c1cc2ccccc2o1)c1cc2ccccc2s1 (centres undefined)
  pEC50: < 3.70
  pIC50: 4.29

## CC(=O)Nc1cccc(S(=O)(=O)c2cccc(NC(=O)c3ccccc3SC(=O)CCCC[n+]3ccccc3)c2)c1
  pEC50: 4.75
  pIC50: < 3.70

## Nc1nc(N)c(-c2ccccc2)c(C(=O)Nc2ccccc2)n1
  pEC50: < 3.39
  pIC50: < 3.39

## OC[C@H]1N[C@H](CO)[C@@H](O)[C@H]1O
  pEC50: < 3.70
  pIC50: 3.83

## CC(C)(C)C1=CP(=O)(c2ccccc2)C=C(C(C)(C)C)N1
  pEC50: < 3.70
  pIC50: < 3.70

## COc1ccc(-c2c3c(n(C4OC(COC(C)=O)C(OC(C)=O)C(OC(C)=O)C4OC(C)=O)c(=S)c2C#N)CCC3)cc1 (centres undefined)
  pEC50: < 3.70
  pIC50: 3.95

## Nc1ncnc2sc(Nc3ccccc3)nc12
  pEC50: < 4.27
  pIC50: 4.48

## COC(=N)C1(C#N)NC(c2ccsc2)C(C#N)(C#N)NC1c1ccsc1 (centres undefined)
  pEC50: < 3.70
  pIC50: 4.25

## COc1ccc2c(c1)c1c(n2CCN2CCCCC2)-c2cccc(OC)c2CC1
  pEC50: < 3.70
  pIC50: 4.95

## CC(=O)Oc1c(Cl)cc(C(=CCC[C@H]2CC[C@@]3(C)[C@@H](CC[C@@H]4[C@@H]3CC[C@]3(C)[C@@H]([C@H](C)CCCC(C)C)CC[C@@H]43)C2)c2cc(Cl)c(OC(C)=O)c(C(=O)O)c2)cc1C(=O)O
  pEC50: 3.79
  pIC50: 3.76

## CSC1=NS(=O)(=O)c2cc(C(=O)NN(C)C(=O)c3cc4c(cc3Cl)SC(SC)=NS4(=O)=O)c(Cl)cc2S1
  pEC50: < 3.70
  pIC50: 4.04

## CCN(CC)C(=O)N1CN(c2ccccc2)C2(CCN(CCCC3(c4ccc(F)cc4)OCCO3)CC2)C1=O
  pEC50: < 3.70
  pIC50: 4.56

## Cc1n(CC(C)C)c2c([n+]1CC(=O)c1ccc([N+](=O)[O-])cc1)C(=O)c1ccccc1C2=O
  pEC50: < 5.31
  pIC50: 7.54

## COc1c(C2=NC(C(C)C)CO2)ccc2ccccc12 (centres undefined)
  pEC50: < 3.73
  pIC50: 4.68

## O=c1nc2n(c3ncccc13)CC=NN2
  pEC50: < 3.70
  pIC50: < 3.70

## O=c1ccn(CC2COC(CP(=O)(O)O)O2)c(=O)[nH]1 (centres undefined)
  pEC50: < 3.70
  pIC50: < 3.70

## CC(=O)OCC1OC(OC(C)=O)C(Nc2ncc(-c3ccc(C)cc3)s2)C(OC(C)=O)C1OC(C)=O (centres undefined)
  pEC50: < 3.70
  pIC50: 4.88

## CC(=O)Oc1ccc2c(oc(=O)c3nc(C)oc32)c1C
  pEC50: < 3.70
  pIC50: 3.84

## O=C(c1ccccc1)N1C(=O)N(c2ccccc2)C(=Nc2ccccc2)C1=Nc1ccccc1
  pEC50: < 3.70
  pIC50: 4.72

## CC12CCC(=O)N1c1cnccc1N2 (centres undefined)
  pEC50: < 3.70
  pIC50: < 3.70

## C[C@]12CCC3[C@@H](CC[C@@H]4c5nonc5CC[C@]34C)C1CC[C@@H]2O (some centres undefined)
  pEC50: < 3.67
  pIC50: < 3.67

## O=[N+]([O-])c1cc(C(F)(F)F)cc2c1SC1=Nc3ccccc3CN12
  outcome: inactive

## CCOc1cc2c(cc1O)CC[C@@H]1[C@@H]2CC[C@]2(C)C(N)CC[C@@H]12 (some centres undefined)
  pEC50: < 3.70
  pIC50: 5.92

## O=C(NCc1ccncc1)C1COc2cc(-c3cc(=O)c4ccccc4o3)ccc2O1 (centres undefined)
  outcome: inactive

## CN(C)CC1CCC/C(=C\c2ccc(OC(=O)/C=C/c3ccc(Cl)c(Cl)c3)cc2)C1=O (centres undefined)
  pEC50: < 4.00
  pIC50: 5.84

## CSC(N)=Nc1cccc2ccccc12
  pEC50: < 3.70
  pIC50: < 3.70

## c1ccc([P+](CCSCCSCC[P+](c2ccccc2)(c2ccccc2)c2ccccc2)(c2ccccc2)c2ccccc2)cc1
  pEC50: < 3.47
  pIC50: 4.21

## N#Cc1c(N)nc([Se]CC(=O)c2ccc(Cl)cc2)c(C#N)c1-c1ccco1
  pEC50: < 3.70
  pIC50: 3.85

## O=S(=O)(c1ccccc1)C1(CCC2OCCO2)C=CC2(CC1)OCCO2 (centres undefined)
  pEC50: < 3.70
  pIC50: < 3.70

## Cc1ccc(-c2cc(=O)c3cc(C)c(C)c(C(=O)O)c3o2)cc1
  outcome: inactive

## C(=C\c1c[nH]c2ccccc12)/c1nccc2ccccc12
  pEC50: 7.20
  pIC50: 3.97

## C1CSC[C@H]2COC[C@@H](CSCCS1)S2
  pEC50: < 3.20
  pIC50: < 3.20

## O=C1OCOC2(CCCC2)C1c1ccccc1 (centres undefined)
  pEC50: < 3.70
  pIC50: 3.92

## c1ccc(COc2ccc(CC3SCCCS3)cc2)cc1
  pEC50: < 3.70
  pIC50: < 3.70

## NC1=NS(=O)(=O)Nc2nc[nH]c21
  pEC50: < 2.88
  pIC50: < 2.88

## Nc1nc(N)nc(NCCSSCCNc2nc(N)nc(N)n2)n1
  pEC50: < 3.70
  pIC50: 4.01

## CC(=O)OC1C[C@@H](C)C2(C[C@H](O)c3ccoc3)C(=O)OC[C@]13C2CCC(O)C31CO1 (some centres undefined)
  pEC50: < 3.70
  pIC50: < 3.70

## CCc1c(C)c(C#N)c(=S)n(C2OC(COC(C)=O)C(OC(C)=O)C(OC(C)=O)C2OC(C)=O)c1C (centres undefined)
  pEC50: < 3.70
  pIC50: < 3.70

## O=S1(=O)c2ccccc2N2CCCc3cc(Cl)cc1c32
  pEC50: < 3.70
  pIC50: < 3.70
